According to article PMC5382265, “Macrocycle peptides delineate locked-open inhibition mechanism for microorganism phosphoglycerate mutases” (Nature Communications, 2017):
Like-named read-outs stand apart in the source and are kept apart here. Positions of bridges follow the written chain, without caps; N, C: chain ends. Non-standard residues stand in square brackets, D forms with d. Residues, ends and D or L forms follow the SMILES beside them.

Columns and labels:
E. coli iPGM = E. coli iPGM (Escherichia coli, UniProt P37689); assay: biochemical
Sequence of E. coli iPGM (P37689 whole entry, looked up): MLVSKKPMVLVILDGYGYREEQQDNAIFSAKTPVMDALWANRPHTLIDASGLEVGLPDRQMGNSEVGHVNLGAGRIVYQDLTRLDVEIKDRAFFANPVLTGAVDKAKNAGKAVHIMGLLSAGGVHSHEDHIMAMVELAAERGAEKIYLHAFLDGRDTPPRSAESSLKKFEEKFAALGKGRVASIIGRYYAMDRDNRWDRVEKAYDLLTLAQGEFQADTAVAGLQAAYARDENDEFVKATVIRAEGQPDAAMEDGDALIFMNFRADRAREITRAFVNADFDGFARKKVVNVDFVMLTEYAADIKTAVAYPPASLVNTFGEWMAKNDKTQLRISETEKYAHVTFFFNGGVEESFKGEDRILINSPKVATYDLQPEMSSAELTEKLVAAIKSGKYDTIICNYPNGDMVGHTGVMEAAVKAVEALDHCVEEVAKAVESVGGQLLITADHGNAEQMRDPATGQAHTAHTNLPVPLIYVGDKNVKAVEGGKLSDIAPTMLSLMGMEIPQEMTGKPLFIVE

B. malayi iPGM = B. malayi iPGM (Brugia malayi, UniProt Q4VWF8); assay: biochemical
Sequence of B. malayi iPGM (Q4VWF8 whole entry, looked up): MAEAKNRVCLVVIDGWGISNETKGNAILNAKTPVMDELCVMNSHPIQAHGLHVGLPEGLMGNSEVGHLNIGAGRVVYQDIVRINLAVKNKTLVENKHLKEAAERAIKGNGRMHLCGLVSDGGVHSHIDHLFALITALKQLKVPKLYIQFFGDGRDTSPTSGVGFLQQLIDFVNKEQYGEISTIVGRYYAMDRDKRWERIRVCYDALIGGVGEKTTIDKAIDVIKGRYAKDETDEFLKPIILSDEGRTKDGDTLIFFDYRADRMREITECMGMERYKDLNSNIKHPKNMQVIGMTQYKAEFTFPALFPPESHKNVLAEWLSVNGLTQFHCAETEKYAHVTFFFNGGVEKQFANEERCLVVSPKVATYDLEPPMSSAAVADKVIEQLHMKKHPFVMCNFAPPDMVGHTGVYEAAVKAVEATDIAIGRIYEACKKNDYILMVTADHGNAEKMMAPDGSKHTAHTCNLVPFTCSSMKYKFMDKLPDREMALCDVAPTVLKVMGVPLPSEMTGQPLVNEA

O. volvulus iPGM = O. volvulus iPGM (Onchocerca volvulus, UniProt I6LDA6); assay: biochemical
Sequence of O. volvulus iPGM (I6LDA6 whole entry, looked up): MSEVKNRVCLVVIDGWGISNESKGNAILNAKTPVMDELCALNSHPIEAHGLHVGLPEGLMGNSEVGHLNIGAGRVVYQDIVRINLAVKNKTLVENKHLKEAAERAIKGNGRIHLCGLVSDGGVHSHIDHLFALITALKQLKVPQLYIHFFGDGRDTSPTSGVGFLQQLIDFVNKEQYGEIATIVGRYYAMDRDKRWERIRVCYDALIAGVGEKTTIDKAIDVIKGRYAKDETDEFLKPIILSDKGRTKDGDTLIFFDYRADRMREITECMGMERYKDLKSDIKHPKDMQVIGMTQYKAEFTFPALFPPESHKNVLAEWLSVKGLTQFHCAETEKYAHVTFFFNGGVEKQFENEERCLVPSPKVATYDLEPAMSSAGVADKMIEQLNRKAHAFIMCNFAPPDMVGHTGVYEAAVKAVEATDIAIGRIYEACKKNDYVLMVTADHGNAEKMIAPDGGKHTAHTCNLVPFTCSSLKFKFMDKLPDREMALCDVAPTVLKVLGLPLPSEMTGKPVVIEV

C. elegans iPGM = target: T1, C. elegans iPGM (Caenorhabditis elegans, UniProt G5EFZ1); assay: PGM enzyme-coupled bioluminescent end point assay (Kinase-Glo Plus); type: biochemical
T1 sequence (G5EFZ1 1-539): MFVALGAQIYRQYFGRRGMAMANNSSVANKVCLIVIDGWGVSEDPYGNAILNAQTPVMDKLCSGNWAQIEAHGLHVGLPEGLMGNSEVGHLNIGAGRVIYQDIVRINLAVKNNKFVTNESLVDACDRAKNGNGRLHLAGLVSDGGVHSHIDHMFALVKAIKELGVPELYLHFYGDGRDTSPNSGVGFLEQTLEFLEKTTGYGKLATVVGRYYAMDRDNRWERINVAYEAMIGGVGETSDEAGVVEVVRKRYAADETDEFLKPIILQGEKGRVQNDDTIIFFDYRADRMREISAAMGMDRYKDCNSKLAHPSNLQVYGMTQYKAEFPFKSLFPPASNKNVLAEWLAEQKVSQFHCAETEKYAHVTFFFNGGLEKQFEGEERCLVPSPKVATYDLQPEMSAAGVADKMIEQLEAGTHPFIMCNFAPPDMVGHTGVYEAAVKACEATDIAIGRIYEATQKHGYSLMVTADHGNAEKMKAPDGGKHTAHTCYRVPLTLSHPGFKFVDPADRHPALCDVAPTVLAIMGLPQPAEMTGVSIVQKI

[1] = pIC50, apparent O. volvulus iPGM
[2] = pIC50, apparent C. elegans iPGM

CC[C@H](C)[C@@H]1NC(=O)[C@H](CCC(=O)O)NC(=O)[C@@H]2CCCN2C(=O)[C@H](C)NC(=O)[C@H](CC(N)=O)NC(=O)[C@@H]2CCCN2C(=O)[C@H](Cc2c[nH]c3ccccc23)NC(=O)[C@H](CO)NC(=O)[C@@H](Cc2ccc(O)cc2)NC(=O)CSC[C@@H](C(=O)N[C@@H](CS)C(=O)NCC(N)=O)NC(=O)[C@H](CCCCN)NC(=O)[C@H](Cc2c[nH]c3ccccc23)NC1=O [Bm-1] ({CH2CO}-[dY]SWPNAPEIWKCCG-NH2; thioether N-12)
IC50 (E. coli iPGM; pIC50, apparent E. coli iPGM): 4900 nM
IC50 (B. malayi iPGM; pIC50, apparent B. malayi iPGM): 1290 nM
IC50 (O. volvulus iPGM; [1]): 1320 nM
IC50 (C. elegans iPGM; [2]): 5010 nM

CC[C@H](C)[C@@H]1NC(=O)[C@H](CO)NC(=O)[C@H](CCCNC(=N)N)NC(=O)[C@H](CC(N)=O)NC(=O)[C@H](CCC(N)=O)NC(=O)[C@@H](Cc2ccc(O)cc2)NC(=O)CSC[C@@H](C(=O)NCC(N)=O)NC(=O)[C@H](CS)NC(=O)CNC(=O)[C@H](Cc2ccc(O)cc2)NC(=O)[C@H](CC(C)C)NC(=O)[C@H](Cc2c[nH]c3ccccc23)NC1=O [Bm-3] ({CH2CO}-[dY]QNRSIWLYGCCG-NH2; thioether N-12)
pIC50, apparent E. coli iPGM (E. coli iPGM): 5.03
pIC50, apparent C. elegans iPGM (C. elegans iPGM): 5.05

CC(C)C[C@@H]1NC(=O)[C@@H](Cc2ccc(O)cc2)NC(=O)CSC[C@@H](C(=O)N[C@@H](CC(N)=O)C(=O)N[C@H](C(=O)N[C@@H](CS)C(=O)NCC(N)=O)[C@@H](C)O)NC(=O)[C@H](CC(N)=O)NC(=O)[C@@H]2CCCN2C(=O)[C@H](Cc2c[nH]c3ccccc23)NC(=O)[C@H](CCC(=O)O)NC1=O [Bm-4] ({CH2CO}-[dY]LEWPNCNTCG-NH2; thioether N-7)
IC50 (E. coli iPGM; pIC50, apparent E. coli iPGM): 2750 nM
IC50 (B. malayi iPGM; pIC50, apparent B. malayi iPGM): 575 nM
IC50 (O. volvulus iPGM; [1]): 794 nM
IC50 (C. elegans iPGM; [2]): 2450 nM

NC(=O)[C@H](Cc1ccc(O)cc1)NC(=O)[C@@H]1CSCC(=O)N[C@H](Cc2ccc(O)cc2)C(=O)N[C@@H](CC(=O)O)C(=O)N[C@@H](Cc2ccc(O)cc2)C(=O)N2CCC[C@H]2C(=O)NCC(=O)N[C@@H](CC(=O)O)C(=O)N[C@@H](Cc2ccc(O)cc2)C(=O)N1 [Ce-2f] ({CH2CO}-[dY]DYPGDYCY-NH2; thioether N-8)
IC50 (E. coli iPGM; pIC50 E. coli iPGM): 25700 nM
IC50 (C. elegans iPGM; pIC50 C. elegans iPGM): 51300 nM

CC[C@H](C)[C@@H]1NC(=O)[C@H](CCCNC(=N)N)NC(=O)[C@H](Cc2ccccc2)NC(=O)[C@@H]2CCCN2C(=O)[C@H](CC(N)=O)NC(=O)[C@H](C)NC(=O)[C@H](CC(C)C)NC(=O)[C@H]([C@@H](C)O)NC(=O)[C@H]([C@@H](C)CC)NC(=O)[C@H](Cc2ccc(O)cc2)NC(=O)CSC[C@@H](C(=O)NCC(N)=O)NC(=O)[C@H](Cc2c[nH]cn2)NC(=O)[C@H](CC(C)C)NC1=O [Ce-3] ({CH2CO}-YITLANPFRILHCG-NH2; thioether N-13)
IC50 (E. coli iPGM; pIC50, apparent E. coli iPGM): 537 nM
IC50 (O. volvulus iPGM; pIC50, M O. volvulus iPGM): 5500 nM
IC50 (C. elegans iPGM): 468 nM

CC[C@H](C)[C@@H]1NC(=O)[C@H](CCCNC(=N)N)NC(=O)[C@H](Cc2ccccc2)NC(=O)[C@@H]2CCCN2C(=O)[C@H](CC(N)=O)NC(=O)[C@H](C)NC(=O)[C@H](CC(C)C)NC(=O)[C@H]([C@@H](C)O)NC(=O)[C@H]([C@@H](C)O)NC(=O)[C@H](Cc2ccc(O)cc2)NC(=O)CSC[C@@H](C(=O)NCC(N)=O)NC(=O)[C@H](Cc2c[nH]cn2)NC(=O)[C@H](CC(C)C)NC1=O [Ce-4] ({CH2CO}-YTTLANPFRILHCG-NH2; thioether N-13)
IC50 (O. volvulus iPGM; pIC50, M O. volvulus iPGM): 4270 nM
IC50 (C. elegans iPGM): 6030 nM

CC(=O)N[C@H](Cc1ccc(O)cc1)C(=O)N[C@@H](CC(=O)O)C(=O)N[C@@H](Cc1ccc(O)cc1)C(=O)N1CCC[C@H]1C(=O)NCC(=O)N[C@@H](CC(=O)O)C(=O)N[C@@H](Cc1ccc(O)cc1)C(=O)N[C@@H](CO)C(=O)N[C@@H](Cc1ccc(O)cc1)C(=O)N[C@@H](CC(C)C)C(=O)N[C@@H](Cc1ccc(O)cc1)C(=O)NCC(=O)N[C@H](C(=O)N[C@@H](CS)C(=O)NCC(N)=O)[C@@H](C)O [Ce-L2] (Ac-[dY]DYPGDYSYLYGTCG-NH2)
IC50 (E. coli iPGM; pIC50 E. coli iPGM): 1320 nM
IC50 (B. malayi iPGM; pIC50 B. malayi iPGM): 12900 nM
IC50 (C. elegans iPGM; pIC50 C. elegans iPGM): 1150 nM
